Assay results published in article PMC6582431 (Chemmedchem, 2018).

Assays:
FAAH [1] = target: T1, FAAH (Mus musculus, UniProt O08914); assay: In vivo FAAH inhibition, liver, after oral administration to mice
T1 sequence (O08914 1-579): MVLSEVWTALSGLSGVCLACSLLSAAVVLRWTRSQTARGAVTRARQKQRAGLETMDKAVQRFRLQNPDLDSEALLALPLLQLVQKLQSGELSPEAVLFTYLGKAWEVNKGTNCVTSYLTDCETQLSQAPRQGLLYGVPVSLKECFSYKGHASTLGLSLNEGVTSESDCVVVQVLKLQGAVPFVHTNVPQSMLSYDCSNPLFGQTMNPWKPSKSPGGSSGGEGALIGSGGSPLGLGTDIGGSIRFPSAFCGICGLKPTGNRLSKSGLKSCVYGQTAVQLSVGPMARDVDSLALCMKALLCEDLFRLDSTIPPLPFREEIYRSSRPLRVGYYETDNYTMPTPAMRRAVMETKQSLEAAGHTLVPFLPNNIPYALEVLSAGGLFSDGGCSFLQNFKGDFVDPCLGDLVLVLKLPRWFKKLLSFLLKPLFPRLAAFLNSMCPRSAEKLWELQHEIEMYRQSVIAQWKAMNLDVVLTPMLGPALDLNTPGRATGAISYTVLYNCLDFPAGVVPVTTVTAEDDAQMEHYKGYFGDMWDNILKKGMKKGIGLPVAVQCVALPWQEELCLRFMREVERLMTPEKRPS

FAAH [2] = target: T1, FAAH; assay: In vivo FAAH inhibition, brain, after oral administration to mice
MAGL = target: T2, MAGL (Rattus norvegicus, UniProt Q8R431); assay: MAGL activity in rat cerebellum cytosol; assay type: biochemical; settings: for MAGL activity, percent of control / MAGL (100 μM), percent of control: C inhib=100 μM in rat cerebellum cytosol; for MAGL activity, percent of control: Table 2
T2 sequence (Q8R431 1-303): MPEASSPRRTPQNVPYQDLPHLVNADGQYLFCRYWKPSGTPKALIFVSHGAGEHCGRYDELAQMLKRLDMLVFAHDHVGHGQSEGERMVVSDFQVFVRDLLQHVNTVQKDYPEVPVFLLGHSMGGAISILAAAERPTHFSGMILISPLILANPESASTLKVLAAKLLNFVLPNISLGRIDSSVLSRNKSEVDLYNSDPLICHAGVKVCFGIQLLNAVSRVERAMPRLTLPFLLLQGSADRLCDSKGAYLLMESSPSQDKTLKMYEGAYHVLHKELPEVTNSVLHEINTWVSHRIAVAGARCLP

carboxylesterases (CEs) = assay: CE activity in rat liver microsomes; assay type: biochemical; settings: for CEs (10 μM), percent of control: 10 μM in rat liver microsomes; for CEs activity, percent of control: C inhib=10 μM in rat liver microsomes, Table 2
FAAH [3] = target: T3, FAAH (Rattus norvegicus, UniProt P97612); assay: In vitro FAAH activity in rat brain homogenates/membranes; assay type: biochemical; settings: for FAAH activity, percent of control, 10 nM / FAAH activity, percent of control, 100 nM: rat brain homogenates, 15 min pre-incubation
T3 sequence (P97612 1-579): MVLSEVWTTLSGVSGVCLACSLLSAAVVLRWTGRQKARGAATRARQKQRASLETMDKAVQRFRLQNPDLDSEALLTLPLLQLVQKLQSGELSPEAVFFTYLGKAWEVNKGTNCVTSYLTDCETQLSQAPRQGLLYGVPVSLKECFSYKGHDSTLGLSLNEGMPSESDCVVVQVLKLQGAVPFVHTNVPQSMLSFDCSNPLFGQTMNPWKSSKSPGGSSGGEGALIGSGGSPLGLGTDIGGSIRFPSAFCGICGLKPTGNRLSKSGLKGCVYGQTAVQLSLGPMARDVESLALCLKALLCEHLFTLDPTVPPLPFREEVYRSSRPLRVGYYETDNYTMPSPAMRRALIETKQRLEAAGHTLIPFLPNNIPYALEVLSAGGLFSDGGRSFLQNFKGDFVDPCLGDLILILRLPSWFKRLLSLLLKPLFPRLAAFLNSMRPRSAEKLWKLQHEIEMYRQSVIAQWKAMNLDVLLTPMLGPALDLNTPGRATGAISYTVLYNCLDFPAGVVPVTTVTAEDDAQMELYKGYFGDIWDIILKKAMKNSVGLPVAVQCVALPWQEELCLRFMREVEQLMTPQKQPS

[4] = 0.1 mg kg^−1 p.o. in mice, 8 h after administration, Table 4
[5] = 0.1 mg kg^−1 p.o., mice, post-dose
[6] = 30 mg kg^−1 p.o. in mice, 1 h after administration, Table 2
[7] = 0.1 mg kg^−1 p.o. in mice, 8 h after administration, Table 5
[8] = 30 mg kg^−1 p.o. in mice, 1 h after administration (footnote f), Table 5

MAGL activity, percent of control (MAGL) | FAAH activity, percent of control, 10 nM (FAAH [3]; Table 2) | FAAH activity, percent of control, 100 nM (FAAH [3]; Table 2) | FAAH activity, percent of control, 100 nM (FAAH [3]; Table 5) | SMILES | CEs activity, percent of control (carboxylesterases (CEs)) | CEs (10 μM), percent of control (carboxylesterases (CEs); Table 5) | further results
87±12% of control | 101±31% of control | 7±4% of control |  | O=C(Nc1cccnc1)N1CCC(Cc2cccc(Oc3ccc(C(F)(F)F)cn3)c2)CC1 [Compound 3, PF3845, reference compound] | 95±17% of control |  | Liver FAAH activity, percent of control (FAAH [1]; [4]): 7±4% of control; time of maximum inhibitory effect in the liver (FAAH [1]; [5]): 1 h; Liver FAAH activity, percent of control (FAAH [1]; [6]): 2±2% of control; inhibition at 30 mg/kg (FAAH [1]; mouse, po, read-out: FAAH inhibition in the liver): > 90%; Brain FAAH activity, percent of control (FAAH [2]; [4]): 5±1% of control; time of maximal inhibitory effect in the brain (t max) (FAAH [2]; [5]): 8 h; Brain FAAH activity, percent of control (FAAH [2]; [6]): 1±0% of control; FAAH inhibition in the brain (FAAH [2]; 30 mg kg^−1 p.o., mice, 1 h post-administration): over 90%; MAGL (100 μM), percent of control (MAGL; Table 4): 87±12% of control; CEs (10 μM), percent of control (carboxylesterases (CEs); Table 4): 95±17% of control
84±25% of control | 71±2% of control | 17±3% of control |  | CC1(C)OCCN1C(=O)n1nnc2ccccc21 [Compound 10 o] | 60±7% of control |  | 
 |  |  | 94±10% of control | CC1(C)COCN1C(=O)n1cnc(-c2ccccc2)c1 [Compound 8 f, (4,4‐Dimethyloxazolidin‐3‐yl)(4‐phenyl‐1H‐imidazol‐1‐yl)methanone] |  | 95±6% of control | Liver FAAH activity, percent of control (FAAH [1]; [7]): 53±6% of control; Brain FAAH activity, percent of control (FAAH [2]; [7]): 92±7% of control; MAGL (100 μM), percent of control (MAGL; Table 5): 92±3% of control
35±5% of control |  | 71±7% of control |  | C[C@@H]1CCC[C@H](C)N1C(=O)n1nnc2ccccc21 [Compound 10 n] | 28±1% of control |  | 
 |  |  |  | CN(C(=O)n1ccnc1)c1ccccc1 [Compound 8 a, N ‐Methyl‐N‐phenyl‐1H‐imidazole‐1‐carboxamide] |  |  | inhibition at 10 µM (FAAH [3]; read-out: FAAH inhibition): 88%
12±4% of control | 1±0% of control | 0±0% of control |  | O=C(N1CCN(c2ccccc2)CC1)n1nnc2ccccc21 [Compound 10 j] | 28±2% of control |  | Liver FAAH activity, percent of control (FAAH [1]; [6]): 30±5% of control; Brain FAAH activity, percent of control (FAAH [2]; [6]): 88±7% of control
 |  |  |  | CC1(C)COCN1C(=O)n1nnc2cccnc21 [Compound 11 e] |  |  | Liver FAAH activity, percent of control (FAAH [1]; [4]): 14±7% of control; inhibition at 0.1 mg/kg (FAAH [1]; mouse, po, read-out: peripheral (liver) FAAH inhibition): > 85%; cerebral (brain) FAAH inhibition (FAAH [2]; 0.1 mg kg^−1, mouse, p.o., 8 h post-dose): over 85%; Brain FAAH activity, percent of control (FAAH [2]; [4]): 12±4% of control; MAGL (100 μM), percent of control (MAGL; Table 4): 72±5% of control; CEs (10 μM), percent of control (carboxylesterases (CEs); Table 4): 61±11% of control
 |  |  | 37±3% of control | CN(C(=O)n1cnc(-c2ccccc2)c1)C1CCCCC1 [Compound 8 j] |  | 90±11% of control | Liver FAAH activity, percent of control (FAAH [1]; [7]): 33±2% of control; Brain FAAH activity, percent of control (FAAH [2]; [7]): 86±5% of control; MAGL (100 μM), percent of control (MAGL; Table 5): 91±3% of control
73±4% of control | 42±12% of control | 1±0% of control |  | CN(C(=O)n1nnc2ccccc21)c1ccccc1 [Compound 10 a] | 31±2% of control |  | Liver FAAH activity, percent of control (FAAH [1]; [6]): 34±5% of control; Brain FAAH activity, percent of control (FAAH [2]; [6]): 34±9% of control; IC50 (MAGL): > 100 µM; IC50 (carboxylesterases (CEs); read-out: CE IC50, rat liver microsomes): > 1000 nM; IC50 (FAAH [3]): 7 nM
 |  |  | 75±7% of control | CN(C(=O)n1cnc(-c2cccnc2)c1)C1CCCCC1 [Compound 8 k, N ‐Cyclohexyl‐N‐methyl‐4‐(pyridin‐3‐yl)‐1H‐imidazole‐1‐carboxamide] |  | 97±3% of control | Liver FAAH activity, percent of control (FAAH [1]; [7]): 13±4% of control; Brain FAAH activity, percent of control (FAAH [2]; [7]): 75±16% of control; MAGL (100 μM), percent of control (MAGL; Table 5): 94±4% of control
58±6% of control | 62±6% of control | 15±1% of control |  | O=C(N1CCCCCCC1)n1nnc2ccccc21 [Compound 10 m] | 30±2% of control |  | 
 |  |  | 84±7% of control | CN(C(=O)n1cnc(-c2ccccc2)c1)c1ccccc1 [Compound 8 b, N ‐Methyl‐N,4‐diphenyl‐1H‐imidazole‐1‐carboxamide] |  | 105±5% of control | Liver FAAH activity, percent of control (FAAH [1]; [8]): 11±5^[f] Percent of control; Brain FAAH activity, percent of control (FAAH [2]; [8]): 14±17^[f] Percent of control
70±6% of control | 35±3% of control | 2±1% of control |  | CN(C(=O)n1nnc2ccccc21)c1ccc(F)cc1F [Compound 10 b, N ‐(2,4‐Difluorophenyl)‐N‐methyl‐1H‐benzo[d][1,2,3]triazole‐1‐carboxamide] | 40±1% of control |  | 
 |  |  | 1±0% of control | O=C(N1CCN(Cc2ccccc2)CC1)n1cnc(-c2ccccc2)c1 [Compound 8 g] |  | 52±2% of control | MAGL (100 μM), percent of control (MAGL; Table 5): 61±6% of control
 |  |  | 104±18% of control | CN(C(=O)n1cnc(-c2ccccc2)c1)C1CCOCC1 [Compound 8 i] |  | 96±7% of control | Liver FAAH activity, percent of control (FAAH [1]; [7]): 12±4% of control; Brain FAAH activity, percent of control (FAAH [2]; [7]): 38±18% of control; MAGL (100 μM), percent of control (MAGL; Table 5): 96±1% of control
7±4% of control | 0±0% of control | 0±0% of control |  | Cl.O=C(N1CCN(Cc2ccccc2)CC1)n1nnc2ccccc21 [Compound 10 i] | 27±1% of control |  | Liver FAAH activity, percent of control (FAAH [1]; [6]): 15±4% of control; Brain FAAH activity, percent of control (FAAH [2]; [6]): 20±5% of control
 |  | 100±5% of control |  | O=C(Nc1ccc(F)cc1F)n1nnc2ccccc21 [Compound 10 d, N ‐(2,4‐Difluorophenyl)‐1H‐benzo[d][1,2,3]triazole‐1‐carboxamide] |  |  | 
 |  | 76±0% of control |  | COc1cc(OC)cc(N(C)C(=O)n2nnc3ccccc32)c1 [Compound 10 c] |  |  | 
2±2% of control | 0±0% of control | 0±0% of control |  | CN(Cc1ccccc1)C(=O)n1nnc2ccccc21 [Compound 10 f] | 24±1% of control |  | Liver FAAH activity, percent of control (FAAH [1]; [6]): 6±2% of control; Brain FAAH activity, percent of control (FAAH [2]; [6]): 1±0% of control
